Reference: article PMC11274128, “Modification and Synergistic Studies of a Novel Frog Antimicrobial Peptide against Pseudomonas aeruginosa Biofilms” (Antibiotics, 2024)
Converted amounts (≈) assume the structure as drawn. Read-outs that look alike come from different tables or passages of the source. Bridge positions count the residues as written; N and C are the ends. Peptide text beside a SMILES is read from it.

Assays:
[1] = test system: horse red blood cells; conditions: horse red blood cells in PBS, 37 °C, 2 h, absorbance 570 nm; positive control 0.1% Triton
Experimental: The pure peptide was dissolved in PBS and then two-fold diluted to obtain a series of concentrations: 512, 256, 128, 64, 32, 16, 8, 4, and 2 μM. A positive control (0.1% Triton) and blank control (PBS) were used. Two millilitres of fresh horse red blood cells were washed in PBS until the supernatant became colourless and clear, and the mixture was then thoroughly mixed. Each mixture contained 100 μL of peptide solution or controls and 100 μL of horse red blood cells, which were then incubated at 37 °C for 2 h and centrifuged at 930× g for 10 min. Subsequently, 100 μL of supernatant from each tube was transferred into a 96-well plate, and the plate reader measured the absorbance at a wavelength of 570 nm. The haemolysis rate was calculated using the following formula:Percentage Haemolysis= (ASample − ABlank)/(APositive − ABlank) × 100%

[2] = test system: G− Bacteria; experiment: Geometric mean of MICs and TI value; type: cell-based; conditions: geometric mean of MICs against tested Gram-negative bacteria
Experimental: The therapeutic potential of antimicrobial agents was valued based on their selectivity toward bacteria in reference to erythrocytes. The TI value was calculated from the results of antibacterial and haemolysis experiments of peptides using the following formula:TI value = HC10 / GMMICs.
GM was the geometric mean of MICs against all tested bacteria.

[3] = test system: K. pneumoniae ATCC 43816 biofilm; type: cell-based, Klebsiella pneumoniae; conditions: for MBIC: lowest concentration inhibiting at least 90% of biofilm formation; for MBEC: minimum concentration eradicating at least 99% of the biofilm
Source text: (§1) The minimum bactericidal concentration (MBC) is defined as the lowest antibiotic concentration that kills 99.9% of the inoculum. The minimum biofilm inhibitory concentration (MBIC) is the lowest concentration that inhibits at least 90% of the formation of biofilm. The minimum biofilm eradication concentration (MBEC) is the minimum concentration that can eradicate at least 99% of the biofilm. In addition to the eight microorganisms described previously, this experiment was also applied to P. aeruginosa (ATCC 27853, ATCC BAA-2108, P. aeruginosa 01, P. aeruginosa 14).

[4] = test system: P. aeruginosa (ATCC CRM 9027); experiment: microbe, parasite or virus in culture; type: cell-based, Pseudomonas aeruginosa; conditions: planktonic P. aeruginosa ATCC CRM 9027; for MIC: 37 °C, nine repeats of three independent experiments; for MBC: lowest concentration killing 99.9% of inoculum
Source text: (§2) The minimum inhibitory concentration (MIC) is the minimum concentration of an antimicrobial agent that prevents the visible growth of a bacterium or bacteria. The MIC is an important piece of data for research on new antimicrobial agents and helps in the effective selection of antibiotics to improve the success of treatment. The minimum bactericidal concentration (MBC) is defined as the lowest antibiotic concentration that kills 99.9% of the inoculum. This study mainly contained eight different microorganisms, which were Staphylococcus aureus (ATCC 6538), methicillin-resistant Staphylococcus aureus (NCTC 12493), Enterococcus faecalis (NCTC 12697), Escherichia coli (ATCC 8739), Klebsiella pneumoniae (ATCC 43816), Pseudomonas aeruginosa (ATCC CRM 9027), Acinetobacter baumannii (BAA 747), and Candida albicans (ATCC 10231). The bacteria were incubated in the compatible medium at 37 °C overnight.

[5] = test system: E. faecalis (NCTC 12697); experiment: microbe, parasite or virus in culture; type: cell-based, Enterococcus faecalis; conditions: planktonic E. faecalis NCTC 12697; for MIC: 37 °C, nine repeats of three independent experiments; for MBC: lowest concentration killing 99.9% of inoculum
Source text: as §2

[6] = test system: P. aeruginosa 14 biofilm; type: cell-based, Pseudomonas aeruginosa; conditions: for MBIC: lowest concentration inhibiting at least 90% of biofilm formation; for MBEC: minimum concentration eradicating at least 99% of the biofilm
Source text: as §1

[7] = test system: P. aeruginosa ATCC BAA-2108 biofilm; type: cell-based, Pseudomonas aeruginosa; conditions: for MBIC: lowest concentration inhibiting at least 90% of biofilm formation; for MBEC: minimum concentration eradicating at least 99% of the biofilm
Source text: as §1

[8] = test system: P. aeruginosa 01 biofilm; type: cell-based, Pseudomonas aeruginosa; conditions: for MBIC: lowest concentration inhibiting at least 90% of biofilm formation; for MBEC: minimum concentration eradicating at least 99% of the biofilm
Source text: as §1

[9] = test system: P. aeruginosa ATCC 27853 biofilm; type: cell-based, Pseudomonas aeruginosa; conditions: for MBIC: lowest concentration inhibiting at least 90% of biofilm formation; for MBEC: minimum concentration eradicating at least 99% of the biofilm
Source text: as §1

[10] = test system: P. aeruginosa ATCC CRM 9027 biofilm; type: cell-based, Pseudomonas aeruginosa; conditions: for MBIC: lowest concentration inhibiting at least 90% of biofilm formation; for MBEC: minimum concentration eradicating at least 99% of the biofilm
Source text: as §1

[11] = test system: S. aureus ATCC 6538 biofilm; conditions: checkerboard MBIC, 24 h, crystal violet, 595 nm
Experimental: (§3) Parameter fractional inhibitory concentration indices (FICIs) were used to evaluate the synergistic effect, and the value of that was calculated as follows:FICI = FICa + FICb FICa = MIC combination peptide/MIC single peptide FICb = MIC combination antibiotic/MIC single antibiotic
(§4) The FICI value was interpreted as “synergy” (FICI ≤ 0.5), “no interaction” (0.5 < FICI ≤ 4), or “antagonism” (FICI > 4).
(§5) The bacteria were also cultured, subcultured, diluted, and incubated as the methods of the MBIC assay. All experimental groups were included in a peptide and antibiotic co-administration of MIC assay. To ensure that the mixture was evenly dispersed, the plate was placed in a shaker and incubated for 24 h at 37 and 220× g. The plate was twice rinsed with 200 µL of PBS solution following a 24 h incubation period with peptides and diluted bacterial cultures. Each well received a separate addition of 100 μL of methanol and 0.1% crystal violet solution (Sigma-Aldrich, London, UK), which was left there for 20 min. The plate was then carefully cleaned under running water. Following the drying process, each well received 160 µL of acetic acid (33% in dd water, Sigma-Aldrich, UK). Additionally, the absorbance was measured at λ = 595 nm using the Synergy HT plate reader. FICI values were calculated and identified for our peptide and antibiotic co-administration of MIC assay.

[12] = test system: MRSA NCTC 12493 biofilm; conditions: checkerboard MBIC, 24 h, crystal violet, 595 nm
Experimental: as §3, §4, §5

[13] = test system: P. aeruginosa 14 biofilm; conditions: checkerboard MBIC, 24 h, crystal violet, 595 nm
Experimental: as §3, §4, §5

[14] = test system: K. pneumoniae ATCC 43816 biofilm; conditions: checkerboard MBIC, 24 h, crystal violet, 595 nm
Experimental: as §3, §4, §5

[15] = test system: P. aeruginosa ATCC BAA-2108 biofilm; conditions: checkerboard MBIC, 24 h, crystal violet, 595 nm
Experimental: as §3, §4, §5

[16] = test system: P. aeruginosa 01 biofilm; conditions: checkerboard MBIC, 24 h, crystal violet, 595 nm
Experimental: as §3, §4, §5

[17] = test system: P. aeruginosa ATCC 27853 biofilm; conditions: checkerboard MBIC, 24 h, crystal violet, 595 nm
Experimental: as §3, §4, §5

[18] = test system: A. baumannii BAA 747 biofilm; conditions: checkerboard MBIC, 24 h, crystal violet, 595 nm
Experimental: as §3, §4, §5

[19] = test system: S. aureus (ATCC 6538); experiment: microbe, parasite or virus in culture; type: cell-based, Staphylococcus aureus; conditions: planktonic S. aureus ATCC 6538; for MIC: 37 °C, nine repeats of three independent experiments, read-out: MIC; for MBC: lowest concentration killing 99.9% of inoculum, read-out: MBC
Source text: as §2

[20] = test system: A. baumannii BAA 747 biofilm; type: cell-based, Acinetobacter baumannii; conditions: for MBIC: lowest concentration inhibiting at least 90% of biofilm formation; for MBEC: minimum concentration eradicating at least 99% of the biofilm
Source text: as §1

[21] = peptide combined with gentamicin

SMILES | HC10 [1] | GM (geometric mean of MICs), G− Bacteria [2] | MBIC [3] | MBEC [3] | MIC [5] | MBC [5] | MBIC [6] | MBEC [6] | MBIC [7] | MBEC [7] | MBIC [8] | MBEC [8] | MBIC [9] | MBEC [9] | MBIC [10] | MBEC [10] | Biofilm FICI ([11]; peptide combined with cefepime) | Biofilm FICI [11, 21] | Biofilm FICI ([12]; peptide combined with cefepime) | Biofilm FICI [12, 21] | other results
CC[C@H](C)[C@H](NC(=O)[C@H](CCCCN)NC(=O)[C@H](CCCCN)NC(=O)CNC(=O)[C@H](C)NC(=O)CNC(=O)[C@H](CC(C)C)NC(=O)[C@@H](NC(=O)CNC(=O)[C@H](CO)NC(=O)[C@H](CC(C)C)NC(=O)[C@H](CC(C)C)NC(=O)CN)C(C)C)C(=O)N[C@H](C(=O)N[C@H]1CSSC[C@@H](C(=O)O)NC(=O)[C@H](CCCNC(=N)N)NC(=O)CNC(=O)[C@H](CO)NC(=O)[C@H](CC(C)C)NC(=O)CNC1=O)C(C)C [Nigrosin-6VL] (H-GLLSGVLGAGKKIVCGLSGRC-OH; disulfide 15-21) | >256 µM | 90.51 µM | >128/>128 µM | >128/>128 µM | > 128 µM | > 128 µM | >128/>128 µM | >128/>128 µM | >128/>128 µM | >128/>128 µM | >128/>128 µM | >128/>128 µM | >128/>128 µM | >128/>128 µM | >128/>128 µM | >128/>128 µM | 1 | 0.5 | 0.75 | 0.375 | MIC ([4]; read-out: MIC): 32 µM (≈ 63.6 µg/mL); MBC ([4]; read-out: MBC): 128 µM (≈ 254 µg/mL); Biofilm FICI ([13]; peptide combined with cefepime): 0.25; Biofilm FICI [13, 21]: 0.5; Biofilm FICI ([14]; peptide combined with cefepime): 1.25; Biofilm FICI [14, 21]: 0.5; Biofilm FICI ([15]; peptide combined with cefepime): 0.625; Biofilm FICI [15, 21]: 1; Biofilm FICI ([16]; peptide combined with cefepime): 0.625; Biofilm FICI [16, 21]: 0.625; Biofilm FICI ([17]; peptide combined with cefepime): 1; Biofilm FICI [17, 21]: 0.25; Biofilm FICI ([18]; peptide combined with cefepime): 0.5; Biofilm FICI [18, 21]: 0.5; MIC [19]: 16 µM (≈ 31.8 µg/mL); MBC [19]: 32 µM (≈ 63.6 µg/mL); MBIC [20]: >128/>128 µM; MBEC [20]: >128/>128 µM
CC[C@H](C)[C@H](NC(=O)[C@H](CCCCN)NC(=O)[C@H](CCCCN)NC(=O)CNC(=O)[C@H](C)NC(=O)[C@H](CCCNC(=N)N)NC(=O)[C@H](CC(C)C)NC(=O)[C@@H](NC(=O)[C@H](C)NC(=O)[C@H](CCCNC(=N)N)NC(=O)[C@H](CC(C)C)NC(=O)[C@H](CC(C)C)NC(=O)CN)C(C)C)C(=O)N[C@H](C(=O)N[C@H]1CSSC[C@@H](C(=O)O)NC(=O)[C@H](CCCNC(=N)N)NC(=O)CNC(=O)[C@H](CO)NC(=O)[C@H](CC(C)C)NC(=O)CNC1=O)C(C)C [Peptide 2170-2R] (H-GLLRAVLRAGKKIVCGLSGRC-OH; disulfide 15-21) | >256 µM | 11.31 µM | 32 µM | > 128 µM | 128 µM (≈ 278 µg/mL) | 128 µM (≈ 278 µg/mL) | >128/>128 µM | >128/>128 µM | >128/>128 µM | >128/>128 µM | 32 µM | 64 µM | 8 µM | 16 µM | >128/>128 µM | >128/>128 µM | 1 | 0.25 | 0.5 | 1.125 | MIC [4]: 32 µM (≈ 69.4 µg/mL); MBC [4]: 32 µM (≈ 69.4 µg/mL); Biofilm FICI ([13]; peptide combined with cefepime): 0.375; Biofilm FICI [13, 21]: 1; Biofilm FICI ([14]; peptide combined with cefepime): 3; Biofilm FICI [14, 21]: 1.125; Biofilm FICI ([15]; peptide combined with cefepime): 1; Biofilm FICI [15, 21]: >3; Biofilm FICI ([16]; peptide combined with cefepime): 0.5; Biofilm FICI [16, 21]: 1; Biofilm FICI ([17]; peptide combined with cefepime): 0.5; Biofilm FICI [17, 21]: 0.25; Biofilm FICI ([18]; peptide combined with cefepime): 0.625; Biofilm FICI [18, 21]: 0.75; MIC [19]: 4 µM (≈ 8.67 µg/mL); MBC [19]: 8 µM (≈ 17.3 µg/mL); MBIC [20]: 8 µM; MBEC [20]: 16 µM
